Results: patent US9938261B2, “Heterocyclic compounds and methods of use thereof” (AMBIT BIOSCIENCES CORPORATION, priority 2011, dated 2018)

Columns and labels:
FLT3 = target: T1, FLT3 (Homo sapiens, UniProt P36888); assay: Competition binding assay, FLT3 Kd
T1 construct: made in house
T1 sequence (P36888 27-993): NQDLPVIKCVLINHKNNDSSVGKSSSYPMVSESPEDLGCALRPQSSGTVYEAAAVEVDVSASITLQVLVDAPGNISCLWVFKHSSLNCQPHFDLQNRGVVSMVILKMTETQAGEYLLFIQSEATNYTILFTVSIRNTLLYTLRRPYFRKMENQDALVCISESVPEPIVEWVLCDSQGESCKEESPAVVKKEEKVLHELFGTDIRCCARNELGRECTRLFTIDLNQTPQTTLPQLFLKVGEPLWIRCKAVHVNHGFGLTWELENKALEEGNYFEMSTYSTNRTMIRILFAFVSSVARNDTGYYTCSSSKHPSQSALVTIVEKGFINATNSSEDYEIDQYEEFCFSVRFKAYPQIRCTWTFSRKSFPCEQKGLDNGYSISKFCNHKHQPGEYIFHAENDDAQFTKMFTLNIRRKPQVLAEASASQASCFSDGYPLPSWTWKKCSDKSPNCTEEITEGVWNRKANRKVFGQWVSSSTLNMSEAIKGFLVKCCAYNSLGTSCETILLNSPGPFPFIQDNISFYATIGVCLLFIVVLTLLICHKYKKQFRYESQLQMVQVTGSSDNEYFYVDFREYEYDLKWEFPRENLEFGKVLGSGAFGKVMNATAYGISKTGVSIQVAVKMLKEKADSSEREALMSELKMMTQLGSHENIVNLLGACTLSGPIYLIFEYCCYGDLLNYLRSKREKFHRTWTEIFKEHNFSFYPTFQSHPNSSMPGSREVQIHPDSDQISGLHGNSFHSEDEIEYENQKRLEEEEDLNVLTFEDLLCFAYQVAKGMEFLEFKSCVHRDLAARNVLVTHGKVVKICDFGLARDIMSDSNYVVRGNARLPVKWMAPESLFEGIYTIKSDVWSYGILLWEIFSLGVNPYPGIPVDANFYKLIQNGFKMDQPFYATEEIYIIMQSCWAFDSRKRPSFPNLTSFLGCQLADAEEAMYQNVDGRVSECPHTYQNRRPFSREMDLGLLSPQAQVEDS
Summary of the method: (§1)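 First, biotinylated affinity ligands were loaded onto streptavidin magnetic beads and blocked. Kinase, beads and compound were then equilibrated 1 hour at room temperature, washed, and eluted with non-biotinylated ligand. Eluted kinase was measured by qPCR, with Kd fitted from an eleven-point threefold dilution series.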

KIT = target: T2, KIT (Homo sapiens, UniProt P10721); assay: Competition binding assay, KIT Kd
T2 construct: made in house
Summary of the method: as §1

PDGFRβ = target: T3, PDGFRβ (Homo sapiens, UniProt P09619); assay: Competition binding assay, PDGFRβ Kd
T3 construct: made in house
Summary of the method: as §1

CSF1R = CSF1R (Homo sapiens, UniProt P07333); assay: HEK293 CSF1R phosphorylation MSD assay; type: cell-based; parameters: expressed in transfected cells; host or cells: HEK293; conditions: 2 h compound, human M-CSF 50 ng/mL for 5 min; read-out: HEK293 pCSF1R M-CSF MSD:IC50
Summary of the method: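 HEK293 cells expressing CSF1R-FKBP were pretreated 2 h at 37° C with 9 half-log concentrations of compound (0.5% DMSO final), then stimulated 5 min with 50 ng/mL human M-CSF. Lysates captured on biotin-FK506 plates; phosphotyrosine detected by MSD electrochemiluminescence. IC50 versus DMSO, averaged from duplicate plates.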

T3 sequence (P09619 33-1106): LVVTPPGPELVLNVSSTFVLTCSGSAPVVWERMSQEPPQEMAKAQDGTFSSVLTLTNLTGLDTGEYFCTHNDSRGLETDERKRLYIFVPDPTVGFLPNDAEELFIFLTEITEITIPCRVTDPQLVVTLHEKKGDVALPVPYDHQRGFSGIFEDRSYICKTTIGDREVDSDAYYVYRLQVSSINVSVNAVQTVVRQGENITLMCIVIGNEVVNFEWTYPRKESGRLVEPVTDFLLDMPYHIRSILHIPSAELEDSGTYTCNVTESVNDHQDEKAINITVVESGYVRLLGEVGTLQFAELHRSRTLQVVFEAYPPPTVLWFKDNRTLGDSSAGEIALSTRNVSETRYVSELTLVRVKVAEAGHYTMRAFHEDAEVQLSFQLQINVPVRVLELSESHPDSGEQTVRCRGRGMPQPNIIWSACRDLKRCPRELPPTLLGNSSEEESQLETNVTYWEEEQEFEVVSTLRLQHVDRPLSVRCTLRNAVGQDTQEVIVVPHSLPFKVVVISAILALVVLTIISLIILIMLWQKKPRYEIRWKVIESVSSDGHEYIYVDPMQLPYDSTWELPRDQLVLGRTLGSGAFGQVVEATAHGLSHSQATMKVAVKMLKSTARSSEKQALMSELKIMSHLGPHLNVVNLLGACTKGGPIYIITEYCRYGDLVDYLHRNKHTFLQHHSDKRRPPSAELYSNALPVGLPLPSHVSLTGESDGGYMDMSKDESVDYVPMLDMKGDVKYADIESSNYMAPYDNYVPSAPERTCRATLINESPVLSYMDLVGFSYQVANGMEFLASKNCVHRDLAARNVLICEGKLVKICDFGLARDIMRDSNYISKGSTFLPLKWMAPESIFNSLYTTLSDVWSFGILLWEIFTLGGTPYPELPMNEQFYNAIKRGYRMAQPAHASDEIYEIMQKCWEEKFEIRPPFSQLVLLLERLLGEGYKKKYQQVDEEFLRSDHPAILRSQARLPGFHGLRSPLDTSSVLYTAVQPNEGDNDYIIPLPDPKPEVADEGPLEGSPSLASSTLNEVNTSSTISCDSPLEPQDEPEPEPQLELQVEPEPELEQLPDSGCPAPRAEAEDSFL
T2 sequence (P10721 26-976): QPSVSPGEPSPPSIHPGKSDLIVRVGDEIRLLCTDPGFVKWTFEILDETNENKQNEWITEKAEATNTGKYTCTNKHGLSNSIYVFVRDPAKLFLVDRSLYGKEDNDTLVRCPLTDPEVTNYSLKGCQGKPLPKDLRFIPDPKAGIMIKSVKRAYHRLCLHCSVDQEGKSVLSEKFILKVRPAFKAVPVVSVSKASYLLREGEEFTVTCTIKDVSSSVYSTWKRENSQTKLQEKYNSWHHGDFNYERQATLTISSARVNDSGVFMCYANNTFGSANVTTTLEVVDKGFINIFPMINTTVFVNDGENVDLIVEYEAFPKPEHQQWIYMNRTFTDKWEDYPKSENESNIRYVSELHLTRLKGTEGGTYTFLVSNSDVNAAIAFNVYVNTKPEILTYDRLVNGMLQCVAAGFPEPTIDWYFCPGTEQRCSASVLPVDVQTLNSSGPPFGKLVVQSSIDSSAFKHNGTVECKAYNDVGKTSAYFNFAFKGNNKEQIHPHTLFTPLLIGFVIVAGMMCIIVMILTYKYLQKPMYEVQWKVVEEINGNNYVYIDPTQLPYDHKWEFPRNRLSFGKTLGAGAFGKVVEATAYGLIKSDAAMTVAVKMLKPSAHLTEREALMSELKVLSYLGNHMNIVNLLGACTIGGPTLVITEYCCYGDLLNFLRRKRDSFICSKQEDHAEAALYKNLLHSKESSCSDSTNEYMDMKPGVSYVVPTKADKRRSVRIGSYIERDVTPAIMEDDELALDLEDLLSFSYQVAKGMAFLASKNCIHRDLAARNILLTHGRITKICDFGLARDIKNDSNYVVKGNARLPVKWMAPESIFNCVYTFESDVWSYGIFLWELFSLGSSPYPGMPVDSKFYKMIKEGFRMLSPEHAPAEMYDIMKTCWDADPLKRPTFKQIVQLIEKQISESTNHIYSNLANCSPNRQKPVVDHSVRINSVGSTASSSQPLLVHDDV
CSF1R, sequence (P07333 20-972): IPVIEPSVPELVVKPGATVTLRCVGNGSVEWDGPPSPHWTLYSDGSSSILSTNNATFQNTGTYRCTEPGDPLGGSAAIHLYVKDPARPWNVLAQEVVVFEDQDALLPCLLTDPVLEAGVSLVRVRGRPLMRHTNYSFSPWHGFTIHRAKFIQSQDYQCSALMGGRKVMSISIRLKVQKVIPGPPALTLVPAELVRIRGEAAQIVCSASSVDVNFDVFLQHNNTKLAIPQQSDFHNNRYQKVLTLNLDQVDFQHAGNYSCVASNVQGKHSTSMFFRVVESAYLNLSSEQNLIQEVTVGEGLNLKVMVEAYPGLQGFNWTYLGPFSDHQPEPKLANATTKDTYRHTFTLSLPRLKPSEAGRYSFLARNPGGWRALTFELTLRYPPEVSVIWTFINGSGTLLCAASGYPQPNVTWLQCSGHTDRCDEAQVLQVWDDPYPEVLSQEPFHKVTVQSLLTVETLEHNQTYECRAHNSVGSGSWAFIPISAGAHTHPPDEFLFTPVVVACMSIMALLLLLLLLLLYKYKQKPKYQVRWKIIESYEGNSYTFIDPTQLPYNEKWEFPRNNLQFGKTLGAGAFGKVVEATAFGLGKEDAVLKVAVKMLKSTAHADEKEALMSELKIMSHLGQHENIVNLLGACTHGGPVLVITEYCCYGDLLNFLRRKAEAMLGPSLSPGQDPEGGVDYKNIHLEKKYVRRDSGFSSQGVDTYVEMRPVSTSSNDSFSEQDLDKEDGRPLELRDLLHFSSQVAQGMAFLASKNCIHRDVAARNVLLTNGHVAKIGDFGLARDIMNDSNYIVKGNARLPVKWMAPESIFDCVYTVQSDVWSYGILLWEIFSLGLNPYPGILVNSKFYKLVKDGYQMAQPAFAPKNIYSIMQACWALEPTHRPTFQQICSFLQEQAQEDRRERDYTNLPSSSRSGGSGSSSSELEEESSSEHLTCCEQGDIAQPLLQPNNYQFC

| Kd (FLT3) | Kd (KIT) | Kd (PDGFRβ) | IC50 (CSF1R) | Structure (SMILES) |
| --- | --- | --- | --- | --- |
| > 5000 nM | 100 to 500 nM | 50 to 500 nM | 50 to 200 nM | O=C1CCCC[C@H]1Nc1nc2ccc(Cn3cnc4cccnc43)cc2s1 [Example 54, (R)-2-((6-((3H-imidazo[4,5-b]pyridin-3-yl)methyl)benzo[d]thiazol-2-yl)amino)cyclohexanone] |
| 1000 to 5000 nM | ≤ 100 nM | ≤ 50 nM | ≤ 50 nM | O[C@@H]1CCCC[C@H]1Nc1nc2ccc(Cn3cnc4cc(Cl)cnc43)cc2s1 [Example 55, (1R,2R)-2-((6-((6-chloro-3H-imidazo[4,5-b]pyridin-3-yl)methyl)benzo[d]thiazol-2-yl)amino)cyclohexanol] |
| 200 to 1000 nM | ≤ 100 nM | ≤ 50 nM | 50 to 200 nM | O[C@@H]1CCCC[C@H]1Nc1nc2ccc(Cn3cnc4cccnc43)cc2o1 [Example 56, (1R,2R)-2-((6-((3H-imidazo[4,5-b]pyridin-3-yl)methyl)benzo[d]oxazol-2-yl)amino)cyclohexanol] |
| 200 to 1000 nM | ≤ 100 nM | ≤ 50 nM | 50 to 200 nM | O[C@@H]1Cc2ccccc2[C@H]1Nc1nc2ccc(Cn3cnc4cccnc43)cc2o1 [Example 57, (1R,2R)-1-((6-((3H-imidazo[4,5-b]pyridin-3-yl)methyl)benzo[d]oxazol-2-yl)amino)-2,3-dihydro-1H-inden-2-ol] |
| 1000 to 5000 nM | ≤ 100 nM | ≤ 50 nM | 50 to 200 nM | ON=C1CCCC[C@H]1Nc1nc2ccc(Cn3cnc4cccnc43)cc2s1 [Example 58, (R)-2-((6-((3H-imidazo[4,5-b]pyridin-3-yl)methyl)benzo[d]thiazol-2-yl)amino)cyclohexanone oxime] |
| ≤ 200 nM | ≤ 100 nM | ≤ 50 nM | ≤ 50 nM | O[C@@H]1CCCC[C@H]1Nc1nc2ccc(Cn3cnc4cc(Br)cnc43)cc2o1 [Example 61, (1R,2R)-2-((6-((6-bromo-3H-imidazo[4,5-b]pyridin-3-yl)methyl)benzo[d]oxazol-2-yl)amino)cyclohexanol] |
| 200 to 1000 nM | ≤ 100 nM | ≤ 50 nM | ≤ 50 nM | O[C@@H]1Cc2ccccc2[C@H]1Nc1nc2ccc(Cn3cnc4cc(Br)cnc43)cc2o1 [Example 62, (1R,2R)-1-((6-((6-bromo-3H-imidazo[4,5-b]pyridin-3-yl)methyl)benzo[d]oxazol-2-yl)amino)-2,3-dihydro-1H-inden-2-ol] |
| ≤ 200 nM | ≤ 100 nM | ≤ 50 nM | 50 to 200 nM | OC[C@@H](Nc1nc2ccc(Cn3cnc4cccnc43)cc2s1)C1CCCCC1 [Example 63, (S)-2-((6-((3H-imidazo[4,5-b]pyridin-3-yl)methyl)benzo[d]thiazol-2-yl)amino)-2-cyclohexylethanol] |
| 200 to 1000 nM | ≤ 100 nM | ≤ 50 nM | 200 to 500 nM | OC[C@H](Nc1nc2ccc(Cn3cnc4cccnc43)cc2s1)C1CCCCC1 [Example 64, (R)-2-((6-((3H-imidazo[4,5-b]pyridin-3-yl)methyl)benzo[d]thiazol-2-yl)amino)-2-cyclohexylethanol] |
| 1000 to 5000 nM | 500 to 2000 nM | > 2000 nM | 50 to 200 nM | COc1cc2c(cc1C#N)ncn2Cc1ccc2nc(N[C@@H]3CCCC[C@H]3O)sc2c1 [Example 65, 1-((2-(((1R,2R)-2-hydroxycyclohexyl)amino)benzo[d]thiazol-6-yl)methyl)-6-methoxy-1H-benzo[d]imidazole-5-carbonitrile] |
| > 5000 nM | 500 to 2000 nM | 50 to 500 nM | 50 to 200 nM | OC[C@@H]1CCCC[C@H]1Nc1nc2ccc(Cn3cnc4cccnc43)cc2s1 [Example 66, ((1R,2R)-2-((6-((3H-imidazo[4,5-b]pyridin-3-yl)methyl)benzo[d]thiazol-2-yl)amino)cyclohexyl)methanol] |
| 1000 to 5000 nM | 100 to 500 nM | ≤ 50 nM | ≤ 50 nM | CC(=O)c1cnc2c(c1)ncn2Cc1ccc2nc(N[C@@H]3CCCC[C@H]3O)sc2c1 [Example 73, 1-(3-((2-(((1R,2R)-2-hydroxycyclohexyl)amino)benzo[d]thiazol-6-yl)methyl)-3H-imidazo[4,5-b]pyridin-6-yl)ethanone] |
| ≤ 200 nM | 100 to 500 nM | 50 to 500 nM | 50 to 200 nM | CS(=O)(=O)c1cnc2c(c1)ncn2Cc1ccc2nc(N[C@@H]3CCCC[C@H]3O)sc2c1 [Example 74, (1R,2R)-2-((6-((6-(methylsulfonyl)-3H-imidazo[4,5-b]pyridin-3-yl)methyl)benzo[d]thiazol-2-yl)amino)cyclohexanol] |
| 1000 to 5000 nM | ≤ 100 nM | ≤ 50 nM | 50 to 200 nM | OC1(CNc2nc3ccc(Cn4cnc5cccnc54)cc3s2)CCCCC1 [Example 75, 1-(((6-((3H-imidazo[4,5-b]pyridin-3-yl)methyl)benzo[d]thiazol-2-yl)amino)methyl)cyclohexanol] |
| ≤ 200 nM | ≤ 100 nM | ≤ 50 nM | 50 to 200 nM | OCC1(CNc2nc3ccc(Cn4cnc5cccnc54)cc3s2)CCCCC1 [Example 76, (1-(((6-((3H-imidazo[4,5-b]pyridin-3-yl)methyl)benzo[d]thiazol-2-yl)amino)methyl)cyclohexyl)methanol] |
| 1000 to 5000 nM | 500 to 2000 nM | 500 to 2000 nM | 50 to 200 nM | Cn1cc(-c2cn(Cc3ccc4nc(N[C@@H]5CCCC[C@H]5O)oc4c3)cn2)cn1 [Example 77, (1R,2R)-2-((6-((4-(1-methyl-1H-pyrazol-4-yl)-1H-imidazol-1-yl)methyl)benzo[d]oxazol-2-yl)amino)cyclohexanol] |
| 200 to 1000 nM | ≤ 100 nM | ≤ 50 nM | ≤ 50 nM | O[C@@H]1Cc2ccccc2[C@H]1Nc1nc2ccc(Cn3cnc4ccc(Br)nc43)cc2s1 [Example 80, (1R,2R)-1-((6-((5-bromo-3H-imidazo[4,5-b]pyridin-3-yl)methyl)benzo[d]thiazol-2-yl)amino)-2,3-dihydro-1H-inden-2-ol] |
| 1000 to 5000 nM | 100 to 500 nM | 50 to 500 nM | > 500 nM | O=C(O)c1cnc2c(c1)ncn2Cc1ccc2nc(N[C@@H]3CCCC[C@H]3O)sc2c1 [Example 81, 3-((2-(((1R,2R)-2-hydroxycyclohexyl)amino)benzo[d]thiazol-6-yl)methyl)-3H-imidazo[4,5-b]pyridine-6-carboxylic acid] |
| 1000 to 5000 nM | 500 to 2000 nM | 50 to 500 nM | 200 to 500 nM | O[C@@H]1CCCC[C@H]1Nc1nc2ccc(Cn3cnc4cc(CN5CCOCC5)cnc43)cc2s1 [Example 82, (1R,2R)-2-((6-((6-(morpholinomethyl)-3H-imidazo[4,5-b]pyridin-3-yl)methyl)benzo[d]thiazol-2-yl)amino)cyclohexanol] |
| 1000 to 5000 nM | 100 to 500 nM | 50 to 500 nM | ≤ 50 nM | OCc1cnc2c(c1)ncn2Cc1ccc2nc(N[C@@H]3CCCC[C@H]3O)sc2c1 [Example 84, (1R,2R)-2-((6-((6-(hydroxymethyl)-3H-imidazo[4,5-b]pyridin-3-yl)methyl)benzo[d]thiazol-2-yl)amino)cyclohexanol] |
| 200 to 1000 nM | ≤ 100 nM | ≤ 50 nM | ≤ 50 nM | CSc1cnc2c(c1)ncn2Cc1ccc2nc(N[C@@H]3CCCC[C@H]3O)sc2c1 [Example 85, (1R,2R)-2-((6-((6-(methylthio)-3H-imidazo[4,5-b]pyridin-3-yl)methyl)benzo[d]thiazol-2-yl)amino)cyclohexanol] |
